Data reported in patent US20250136612A1, “4',5'-DIHYDROSPIRO[PIPERIDINE-4,7'-THIENO[2,3-C]PYRAN] DERIVATIVES AS INHIBITORS OF APOL1 AND METHODS OF USING SAME” (VERTEX PHARMACEUTICALS INCORPORATED, priority 2022, published 2025).

Molecular target: T1, APOL1 (Homo sapiens, UniProt O14791)
T1 sequence (O14791 1-398 S342G/I384M): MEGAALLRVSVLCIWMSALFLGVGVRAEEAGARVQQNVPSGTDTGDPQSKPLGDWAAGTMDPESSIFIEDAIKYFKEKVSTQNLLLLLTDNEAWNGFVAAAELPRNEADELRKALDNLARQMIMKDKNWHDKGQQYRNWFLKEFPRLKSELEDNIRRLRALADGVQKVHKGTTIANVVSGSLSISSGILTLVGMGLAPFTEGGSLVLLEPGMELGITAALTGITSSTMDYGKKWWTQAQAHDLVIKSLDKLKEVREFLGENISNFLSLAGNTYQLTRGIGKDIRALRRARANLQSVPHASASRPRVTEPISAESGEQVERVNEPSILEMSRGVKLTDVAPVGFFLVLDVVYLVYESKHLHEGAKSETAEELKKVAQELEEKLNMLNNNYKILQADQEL
Experiment: MultiTox-Fluor Multiplex Cytotoxicity Assay in tet-inducible APOL1 T-REx-HEK293 cells
Type: cell-based
Settings: 50 ng/mL tet, 24 hours, ratio of dead to live cells, read-out: IP50 (i.e., IC50 for cell proliferation)
Protocol: The MultiTox-Fluor Multiplex Cytotoxicity Assay is a single-reagent-addition, homogeneous, fluorescence assay that measures the number of live and dead cells simultaneously in culture wells. The assay measures cell viability and cytotoxicity by detecting two distinct protease activities. The live-cell protease activity is restricted to intact viable cells and is measured using a fluorogenic, cell-permeant peptide glycyl-phenylalanylamino fluorocoumarin (GF-AFC) substrate. The substrate enters intact cells, where it is cleaved to generate a fluorescent signal proportional to the number of living cells. […] A second, cell-impermeant, fluorogenic peptide substrate (bis-AAF-R110 Substrate) is used to measure dead-cell protease that has been released from cells that have lost membrane integrity. A ratio of dead to live cells is used to normalize data.
Briefly, the tet-inducible transgenic APOL1 T-REx-HEK293 cell lines were incubated with 50 ng/mL tet to induce APOL1 in the presence of 3-(2-(4-fluorophenyl)-1H-indol-3-yl)-N-((3S,4R)-4-hydroxy-2-oxopyrrolidin-3-yl)propenamide at 10.03, 3.24, 1.13, 0.356, 0.129, 0.042, 0.129, 0.0045, 0.0015, 0.0005 μM in duplicate for 24 hours in a humidified 37° C. incubator. The MultiTox reagent was added to each well and placed back in the incubator for an additional 30 minutes. The plate was read on the EnVision plate reader. A ratio of dead to live cells was used to normalize, and data was imported, analyzed, and fit using Genedata Screener (Basel, Switzerland) software. Data was normalized using percent of control, no tet (100% viability), and 50 ng/mL tet treated (0% viability),and fit using Smart Fit. The reagents, methods, and complete protocol for the MultiTox assay are described below.
Human embryonic kidney (HEK293) cell lines containing a tet-inducible expression system (T-REx™; Invitrogen, Carlsbad, CA) and Adeno-associated virus site 1 pAAVS1-Puro-APOL1 G0 or pAAVS1-Puro-APOL1 G1 or pAAVS1-Puro-APOL1 G2 Clones G0 DC2.13, G1 DC3.25, and G2 DC4.44 were grown in a T-225 flask at ˜90% confluency in cell growth media (DMEM, 10% Tet-free FBS, 2 mM L-glutamine, 100 Units/mL penicillin-streptomycin, 5 μg/mL blasticidin S HCl, 1 μg/mL puromycin dihydrochloride). Cells were washed with DPBS and then trypsinized to dissociate from the flask. Media was used to quench the trypsin, cells were then pelleted at 200 g and resuspended in fresh cell assay media (DMEM, 2% Tet-free FBS, 2 mM L-glutamine, 100 Units/mL penicillin-streptomycin). Cells were counted and diluted to 1.17×10^6 cells/mL. 20 μL of cells (23,400/well) were dispensed in every well of a 384-well Poly-D-Lysine coated plate using the Multidrop dispenser. The plates were then incubated at room temperature for one hour.
Tetracycline is needed to induce APOL1 expression. 1 mg/mL tet stock in water was diluted to 250 ng/mL (5×) in cell assay media. 60 μL of cell assay media (no tet control) was dispensed in columns 1 and 24, and 60 μL of 5×tet in 384-PP-round bottom plate was dispensed in columns 2 to 23 with the Multidrop dispenser.
Assay ready plates from the Global Compound Archive were ordered using template 384_APOL1Cell_DR10n2_50 uM_v3. Compounds were dispensed at 200 nL in DMSO. The final top concentration was 10 μM with a 10 point 3-fold dilution in duplicate in the MultiTox assay.
20 μL was transferred from the 5×tet plate to the ARP and mixed, then 5 μL of 5×tet and the compounds were transferred to the cell plate and mixed using the Bravo. The cell plate was placed in the humidified 37° C. 5% CO2 incubator for 24 hours.
The MultiTox-Fluor Multiplex Cytotoxicity Assay was performed in accordance with the manufacturer's protocol. After cells were incubated with tet and compound for 24 hours, 25 μL of 1×MultiTox reagent was added to each well using the Multidrop dispenser; the plates were placed on a plate shaker (600 rpm) for 2 minutes, then centrifuged briefly and placed back in the 37° C. incubator for 30 minutes. […]

Question: How did the IC50 turn out when `Cn1cc([C@@H]2C[C@]3(CCN2)OCC(O)c2cc(Cl)sc23)nn1` (stereo partly drawn) [Compound 36, (2S,4S)-2′-chloro-2-(1-methyl-1H-1,2,3-triazol-4-yl)-4′,5′-dihydrospiro[piperidine-4,7′-thieno[2,3-c]pyran]-4′-ol] was run?
Answer: Its IC50 is 100 to 500 nM.

Question: For `Cn1cc([C@@H]2C[C@]3(CCN2)OCC(=O)c2cc(Cl)sc23)nn1` [Compound 41, (2S,4S)-2′-chloro-2-(1-methyltriazol-4-yl)spiro[piperidine-4,7′-thieno[2,3-c]pyran]-4′-one], which IC50 is on record?
Answer: Its IC50 is 100 to 500 nM.

Question: For `[2H]C1([2H])CO[C@]2(CCN[C@H](c3cn(C)nn3)C2)c2sc(Cl)cc21` [Compound 43, (2'S, 7S)-2-chloro-4,4-dideuterio-2′-(1-methyltriazol-4-yl)spiro[5H-thieno[2,3-c]pyran-7,4′-piperidine]], which IC50 is on record?
Answer: The IC50 was 100 to 500 nM.

Question: Which IC50 does the source give for `Cn1cc(C2CC3(CCN2)OCCc2cc(C4CC(F)(F)C4)sc23)nn1` (stereo not drawn) [Compound 46, 2-(3,3-difluorocyclobutyl)-2′-(1-methyltriazol-4-yl)spiro[4,5-dihydrothieno[2,3-c]pyran-7,4′-piperidine]] here?
Answer: The IC50 was 100 to 500 nM.

Question: With `Cn1cc(C2CC3(CCN2)OCC(O)c2cc(C4CC(F)(F)C4)sc23)nn1` (stereo not drawn) [Compound 47] as the compound, how does the IC50 read?
Answer: The IC50 was 500 to 1000 nM.

Question: `Cn1cc([C@@H]2CC3(CCN2)OCCc2cc(CC(F)(F)F)sc23)nn1` (stereo partly drawn) [Compound 48] was tested. Which IC50 did it give?
Answer: Its IC50 is 100 to 500 nM.

Question: `Cn1cc(C2CC3(CCN2)OCCc2cc(CC(F)F)sc23)nn1` (stereo not drawn) [Compound 49] was tested. Which IC50 did it give?
Answer: Its IC50 is < 100 nM.

Question: Which IC50 does the source give for `FC(F)Cc1cc2c(s1)C1(CCNC(c3ccccc3)C1)OCC2` (stereo not drawn) [Compound 50] here?
Answer: The IC50 was 100 to 500 nM.

Question: `Cn1cc([C@@H]2CC3(CCN2)OCCc2c3sc(C(F)(F)F)c2CO)nn1` (stereo partly drawn) [Compound 51, ((2S)-2-(1-methyl-1H-1,2,3-triazol-4-yl)-2′-(trifluoromethyl)-4′,5′-dihydrospiro[piperidine-4,7′-thieno[2,3-c]pyran]-3′-yl)methanol] was tested. Which IC50 did it give?
Answer: Its IC50 is < 100 nM.

Question: How did the IC50 turn out when `NC(=O)c1cccc(-n2cc([C@@H]3C[C@]4(CCN3)OCCc3cc(Cl)sc34)nn2)c1` [Compound 54, 3-(4-((2S,4S)-2′-chloro-4′,5′-dihydrospiro[piperidine-4,7′-thieno[2,3-c]pyran]-2-yl)-1H-1,2,3-triazol-1-yl)benzamide] was run?
Answer: The IC50 was < 100 nM.

Question: `Clc1cc2c(s1)[C@@]1(CCN[C@H](c3cn(-c4ccccc4)nn3)C1)OCC2` [Compound 55, (2S,4S)-2′-chloro-2-(1-phenyl-1H-1,2,3-triazol-4-yl)-4′,5′-dihydrospiro[piperidine-4,7′-thieno[2,3-c]pyran]] was tested. Which IC50 did it give?
Answer: The IC50 was 100 to 500 nM.

Question: How did the IC50 turn out when `O=C1NCc2ccc(-n3cc([C@@H]4C[C@]5(CCN4)OCCc4cc(Cl)sc45)nn3)cc21` [Compound 56] was run?
Answer: Its IC50 is < 100 nM.

Question: `NC(=O)c1cc(-n2cc([C@@H]3C[C@]4(CCN3)OCCc3cc(Cl)sc34)nn2)ccc1F` [Compound 57] was tested. Which IC50 did it give?
Answer: The IC50 was < 100 nM.

Question: Which IC50 does the source give for `CNC(=O)c1cc(-n2cc([C@@H]3C[C@]4(CCN3)OCCc3cc(Cl)sc34)nn2)ccc1OC` [Compound 58] here?
Answer: Its IC50 is 100 to 500 nM.

Question: For `NC(=O)c1ccc(-n2cc([C@@H]3C[C@]4(CCN3)OCCc3cc(Cl)sc34)nn2)cc1` [Compound 59], which IC50 is on record?
Answer: The IC50 was 100 to 500 nM.

Question: How did the IC50 turn out when `CN1Cc2cc(-n3cc([C@@H]4C[C@]5(CCN4)OCCc4cc(Cl)sc45)nn3)ccc2C1=O` [Compound 60] was run?
Answer: Its IC50 is 100 to 500 nM.

Question: For `O=C1NCc2cc(-n3cc([C@@H]4C[C@]5(CCN4)OCCc4cc(Cl)sc45)nn3)ccc21` [Compound 61], which IC50 is on record?
Answer: The IC50 was 100 to 500 nM.

Question: Which IC50 does the source give for `CN1Cc2ccc(-n3cc([C@@H]4C[C@]5(CCN4)OCCc4cc(Cl)sc45)nn3)cc2C1=O` [Compound 62] here?
Answer: The IC50 was 100 to 500 nM.

Question: With `Clc1cc2c(s1)[C@@]1(CCN[C@H](c3cn(-c4cccnc4)nn3)C1)OCC2` [Compound 63] as the compound, how does the IC50 read?
Answer: Its IC50 is 100 to 500 nM.

Question: Which IC50 does the source give for `Clc1cc2c(s1)[C@@]1(CCN[C@H](c3cn(-c4ccncc4)nn3)C1)OCC2` [Compound 64] here?
Answer: The IC50 was 100 to 500 nM.

Question: For `Oc1ccc(-n2cc([C@@H]3C[C@]4(CCN3)OCCc3cc(Cl)sc34)nn2)cc1` [Compound 65], which IC50 is on record?
Answer: Its IC50 is 100 to 500 nM.

Question: `COc1ccccc1-n1cc([C@@H]2C[C@]3(CCN2)OCCc2cc(Cl)sc23)nn1` [Compound 66] was tested. Which IC50 did it give?
Answer: Its IC50 is 100 to 500 nM.

Question: How did the IC50 turn out when `COc1ccc(-n2cc([C@@H]3C[C@]4(CCN3)OCCc3cc(Cl)sc34)nn2)cc1` [Compound 67] was run?
Answer: The IC50 was 100 to 500 nM.

Question: For `CN(C)C(=O)c1ccc(-n2cc([C@@H]3C[C@]4(CCN3)OCCc3cc(Cl)sc34)nn2)cc1` [Compound 68], which IC50 is on record?
Answer: The IC50 was 100 to 500 nM.

Question: `Clc1cc2c(s1)[C@@]1(CCN[C@H](c3cn(-c4ccccn4)nn3)C1)OCC2` [Compound 69] was tested. Which IC50 did it give?
Answer: Its IC50 is 100 to 500 nM.

Question: Which IC50 does the source give for `Fc1cccc(-n2cc([C@@H]3C[C@]4(CCN3)OCCc3cc(Cl)sc34)nn2)c1` [Compound 70] here?
Answer: Its IC50 is 100 to 500 nM.

Question: Which IC50 does the source give for `COc1cccc(-n2cc([C@@H]3C[C@]4(CCN3)OCCc3cc(Cl)sc34)nn2)c1` [Compound 71] here?
Answer: The IC50 was 100 to 500 nM.

Question: For `Fc1ccc(-n2cc([C@@H]3C[C@]4(CCN3)OCCc3cc(Cl)sc34)nn2)cc1` [Compound 72], which IC50 is on record?
Answer: The IC50 was 500 to 1000 nM.

Question: Which IC50 does the source give for `CS(=O)(=O)CCn1cc([C@@H]2C[C@]3(CCN2)OCCc2cc(Cl)sc23)nn1` [Compound 73] here?
Answer: Its IC50 is 500 to 1000 nM.

Question: For `Fc1ccccc1-n1cc([C@@H]2C[C@]3(CCN2)OCCc2cc(Cl)sc23)nn1` [Compound 74], which IC50 is on record?
Answer: Its IC50 is 500 to 1000 nM.

Question: With `Oc1ccccc1-n1cc([C@@H]2C[C@]3(CCN2)OCCc2cc(Cl)sc23)nn1` [Compound 75] as the compound, how does the IC50 read?
Answer: The IC50 was 500 to 1000 nM.

Question: With `COCCn1cc([C@@H]2C[C@]3(CCN2)OCCc2cc(Cl)sc23)nn1` [Compound 76] as the compound, how does the IC50 read?
Answer: Its IC50 is 500 to 1000 nM.

Question: Which IC50 does the source give for `Clc1cc2c(s1)[C@@]1(CCN[C@H](c3c[nH]nn3)C1)OCC2` [Compound 77] here?
Answer: Its IC50 is 500 to 1000 nM.
